Reference: ChEMBL document CHEMBL3885861, “Open TG-GATES”

Species on record: Rattus norvegicus
Assay: Open TG-GATES - Regimen: Single
Assay type: toxicity, organism-based, Sprague-Dawley
Parameters: regimen Single, gender Male, age 6 weeks
Conditions: in vivo, po, route gavage; for APTT / Bas / Eos / Fbg / Hb / Ht / Lym / MCH / MCHC / MCV / Mono / Neu / PT / Plat / RBC / Ret / WBC: tissue Blood; for KIDNEY_L / KIDNEY_R / KIDNEY_TOTAL: tissue Kidney; for LIVER: tissue Liver; for A/G / ALP / ALT / AST / BUN / CRE / Ca / Cl / DBIL / GLC / IP / K / LDH / Na / PL / RALB / TBIL / TC / TG / TP / gamma-GTP: tissue Plasma
[1] = 0 mg/kg, 3 h, dose level Control
[2] = 0 mg/kg, 6 h, dose level Control
[3] = 0 mg/kg, 9 h, dose level Control
[4] = 0 mg/kg, 24 h, dose level Control

## Cc1cccc(Nc2ccccc2C(=O)O)c1C [MEFENAMIC ACID]
[1]
  TERMINAL_BW: 216.3 g
  APTT: 18.2 s
  Bas: 0%
  Eos: 1%
  Fbg: 217.8 mg/dL
  Hb: 13.2 g/dL
  Ht: 37.1%
  Lym: 77.8%
  MCH: 21.9 pg
  MCHC: 35.5%
  MCV: 61.9 fL
  Mono: 2.4%
  Neu: 16.4%
  PT: 12.4 s
  Plat: 117.6 x10_4/uL
  RBC: 600.2 x10_4/ul
  Ret: 7.4%
  WBC: 74.9 x10_2/uL
  KIDNEY_L: 1 g
  KIDNEY_R: 1 g
  KIDNEY_TOTAL: 1.9 g
  LIVER: 9.7 g
  A/G: 1.7
  ALP: 1061 IU/L
  ALT: 35 IU/L
  AST: 67 IU/L
  BUN: 10.8 mg/dL
  CRE: 0.4 mg/dL
  Ca: 10.9 mg/dL
  Cl: 103 meq/L
  DBIL: 0.078 mg/dL
  GLC: 190.4 mg/dL
  IP: 9 mg/dL
  K: 4.1 meq/L
  LDH: 213 IU/L
  Na: 140.8 meq/L
  PL: 145.8 mg/dL
  RALB: 3.5 g/dL
  TBIL: 0.1 mg/dL
  TC: 80 mg/dL
  TG: 49 mg/dL
  TP: 5.6 g/dL
  gamma-GTP: 1.2 IU/L
[2]
  TERMINAL_BW: 214.5 g
  APTT: 18.6 s
  Bas: 0%
  Eos: 1%
  Fbg: 219.4 mg/dL
  Hb: 13.2 g/dL
  Ht: 37.2%
  Lym: 80.6%
  MCH: 22 pg
  MCHC: 35.5%
  MCV: 61.9 fL
  Mono: 2.4%
  Neu: 15%
  PT: 13 s
  Plat: 107.7 x10_4/uL
  RBC: 601.8 x10_4/ul
  Ret: 7.8%
  WBC: 87.4 x10_2/uL
  KIDNEY_L: 1 g
  KIDNEY_R: 1 g
  KIDNEY_TOTAL: 2 g
  LIVER: 8.8 g
  A/G: 1.6
  ALP: 898.6 IU/L
  ALT: 36.8 IU/L
  AST: 65.4 IU/L
  BUN: 8.6 mg/dL
  CRE: 0.3 mg/dL
  Ca: 10.3 mg/dL
  Cl: 102.8 meq/L
  DBIL: 0.062 mg/dL
  GLC: 183.4 mg/dL
  IP: 8.9 mg/dL
  K: 4.2 meq/L
  LDH: 172 IU/L
  Na: 139.6 meq/L
  PL: 134.6 mg/dL
  RALB: 3.3 g/dL
  TBIL: 0.1 mg/dL
  TC: 79.4 mg/dL
  TG: 39.8 mg/dL
  TP: 5.4 g/dL
  gamma-GTP: 1 IU/L
[3]
  TERMINAL_BW: 214.7 g
  APTT: 18.8 s
  Bas: 0%
  Eos: 1%
  Fbg: 228.8 mg/dL
  Hb: 13.6 g/dL
  Ht: 38.3%
  Lym: 78.6%
  MCH: 22.2 pg
  MCHC: 35.6%
  MCV: 62.6 fL
  Mono: 2.2%
  Neu: 17.2%
  PT: 12.8 s
  Plat: 106.8 x10_4/uL
  RBC: 613 x10_4/ul
  Ret: 7.1%
  WBC: 75.3 x10_2/uL
  KIDNEY_L: 1 g
  KIDNEY_R: 1 g
  KIDNEY_TOTAL: 2 g
  LIVER: 8.7 g
  A/G: 1.7
  ALP: 891.2 IU/L
  ALT: 32.6 IU/L
  AST: 64.2 IU/L
  BUN: 10.6 mg/dL
  CRE: 0.3 mg/dL
  Ca: 10.4 mg/dL
  Cl: 102.8 meq/L
  DBIL: 0.074 mg/dL
  GLC: 202.6 mg/dL
  IP: 8.9 mg/dL
  K: 3.8 meq/L
  LDH: 187.4 IU/L
  Na: 141 meq/L
  PL: 136.4 mg/dL
  RALB: 3.5 g/dL
  TBIL: 0.1 mg/dL
  TC: 75.2 mg/dL
  TG: 55.4 mg/dL
  TP: 5.6 g/dL
  gamma-GTP: 1 IU/L
[4]
  TERMINAL_BW: 229.4 g
  APTT: 18 s
  Bas: 0%
  Eos: 1%
  Fbg: 214.8 mg/dL
  Hb: 13.4 g/dL
  Ht: 38.5%
  Lym: 79.2%
  MCH: 22.4 pg
  MCHC: 34.8%
  MCV: 64.2 fL
  Mono: 2%
  Neu: 16.4%
  PT: 12 s
  Plat: 116.5 x10_4/uL
  RBC: 599.6 x10_4/ul
  Ret: 6.7%
  WBC: 80 x10_2/uL
  KIDNEY_L: 1 g
  KIDNEY_R: 1 g
  KIDNEY_TOTAL: 2.1 g
  LIVER: 11.1 g
  A/G: 1.5
  ALP: 943.6 IU/L
  ALT: 39 IU/L
  AST: 66 IU/L
  BUN: 13.6 mg/dL
  CRE: 0.4 mg/dL
  Ca: 10.9 mg/dL
  Cl: 102.8 meq/L
  DBIL: 0.1 mg/dL
  GLC: 193.2 mg/dL
  IP: 7.9 mg/dL
  K: 4.1 meq/L
  LDH: 223.6 IU/L
  Na: 140.2 meq/L
  PL: 147.8 mg/dL
  RALB: 3.4 g/dL
  TBIL: 0.2 mg/dL
  TC: 74.6 mg/dL
  TG: 120.4 mg/dL
  TP: 5.7 g/dL
  gamma-GTP: 1.4 IU/L
30 mg/kg, 3 h, dose level Low
  TERMINAL_BW: 215.4 g
  APTT: 19 s
  Bas: 0%
  Eos: 1%
  Fbg: 214.4 mg/dL
  Hb: 13.3 g/dL
  Ht: 37.7%
  Lym: 79.6%
  MCH: 22 pg
  MCHC: 35.3%
  MCV: 62.1 fL
  Mono: 2.2%
  Neu: 15.4%
  PT: 12.4 s
  Plat: 118.3 x10_4/uL
  RBC: 607.2 x10_4/ul
  Ret: 7.3%
  WBC: 91.2 x10_2/uL
  KIDNEY_L: 1 g
  KIDNEY_R: 1 g
  KIDNEY_TOTAL: 2 g
  LIVER: 9.5 g
  A/G: 1.6
  ALP: 842.4 IU/L
  ALT: 36.2 IU/L
  AST: 68.8 IU/L
  BUN: 11 mg/dL
  CRE: 0.4 mg/dL
  Ca: 10.7 mg/dL
  Cl: 103.6 meq/L
  DBIL: 0.074 mg/dL
  GLC: 189.8 mg/dL
  IP: 8.8 mg/dL
  K: 4.1 meq/L
  LDH: 197.4 IU/L
  Na: 141.2 meq/L
  PL: 134.8 mg/dL
  RALB: 3.4 g/dL
  TBIL: 0.1 mg/dL
  TC: 73.4 mg/dL
  TG: 49.2 mg/dL
  TP: 5.4 g/dL
  gamma-GTP: 1.2 IU/L
30 mg/kg, 6 h, dose level Low
  TERMINAL_BW: 213 g
  APTT: 18.5 s
  Bas: 0%
  Eos: 1%
  Fbg: 226.6 mg/dL
  Hb: 13.4 g/dL
  Ht: 37.4%
  Lym: 76.8%
  MCH: 22.3 pg
  MCHC: 35.8%
  MCV: 62.5 fL
  Mono: 2.6%
  Neu: 18.2%
  PT: 12.6 s
  Plat: 118.7 x10_4/uL
  RBC: 599 x10_4/ul
  Ret: 7.5%
  WBC: 86.8 x10_2/uL
  KIDNEY_L: 1 g
  KIDNEY_R: 1 g
  KIDNEY_TOTAL: 2 g
  LIVER: 9.5 g
  A/G: 1.7
  ALP: 972 IU/L
  ALT: 37.4 IU/L
  AST: 65.2 IU/L
  BUN: 9.8 mg/dL
  CRE: 0.3 mg/dL
  Ca: 10.5 mg/dL
  Cl: 102.6 meq/L
  DBIL: 0.07 mg/dL
  GLC: 191.2 mg/dL
  IP: 8.7 mg/dL
  K: 4 meq/L
  LDH: 168.4 IU/L
  Na: 140.2 meq/L
  PL: 136.6 mg/dL
  RALB: 3.4 g/dL
  TBIL: 0.1 mg/dL
  TC: 77.8 mg/dL
  TG: 58 mg/dL
  TP: 5.4 g/dL
  gamma-GTP: 1 IU/L
30 mg/kg, 9 h, dose level Low
  TERMINAL_BW: 211.9 g
  APTT: 18.5 s
  Bas: 0%
  Eos: 1%
  Fbg: 214.2 mg/dL
  Hb: 13.3 g/dL
  Ht: 37.1%
  Lym: 79.8%
  MCH: 21.4 pg
  MCHC: 35.7%
  MCV: 60 fL
  Mono: 3%
  Neu: 14.6%
  PT: 12.9 s
  Plat: 120.5 x10_4/uL
  RBC: 621.4 x10_4/ul
  Ret: 7.2%
  WBC: 68.9 x10_2/uL
  KIDNEY_L: 0.9 g
  KIDNEY_R: 1 g
  KIDNEY_TOTAL: 1.9 g
  LIVER: 8.5 g
  A/G: 1.6
  ALP: 921.4 IU/L
  ALT: 30.2 IU/L
  AST: 62 IU/L
  BUN: 10.8 mg/dL
  CRE: 0.3 mg/dL
  Ca: 10.5 mg/dL
  Cl: 102.4 meq/L
  DBIL: 0.066 mg/dL
  GLC: 192.6 mg/dL
  IP: 9.1 mg/dL
  K: 3.8 meq/L
  LDH: 164.8 IU/L
  Na: 139.8 meq/L
  PL: 140.2 mg/dL
  RALB: 3.3 g/dL
  TBIL: 0.1 mg/dL
  TC: 79 mg/dL
  TG: 42.8 mg/dL
  TP: 5.3 g/dL
  gamma-GTP: 1 IU/L
30 mg/kg, 24 h, dose level Low
  TERMINAL_BW: 227.6 g
  APTT: 18.2 s
  Bas: 0%
  Eos: 1%
  Fbg: 227.4 mg/dL
  Hb: 13.4 g/dL
  Ht: 38.5%
  Lym: 76.2%
  MCH: 22.3 pg
  MCHC: 34.9%
  MCV: 63.9 fL
  Mono: 3.4%
  Neu: 17.2%
  PT: 11.9 s
  Plat: 117.8 x10_4/uL
  RBC: 604 x10_4/ul
  Ret: 6.7%
  WBC: 93.5 x10_2/uL
  KIDNEY_L: 1 g
  KIDNEY_R: 1 g
  KIDNEY_TOTAL: 2 g
  LIVER: 10.7 g
  A/G: 1.5
  ALP: 1061.2 IU/L
  ALT: 42.2 IU/L
  AST: 71 IU/L
  BUN: 15 mg/dL
  CRE: 0.4 mg/dL
  Ca: 10.8 mg/dL
  Cl: 102.8 meq/L
  DBIL: 0.096 mg/dL
  GLC: 205.4 mg/dL
  IP: 7.6 mg/dL
  K: 4.2 meq/L
  LDH: 198 IU/L
  Na: 139.6 meq/L
  PL: 161 mg/dL
  RALB: 3.5 g/dL
  TBIL: 0.2 mg/dL
  TC: 80.8 mg/dL
  TG: 116.2 mg/dL
  TP: 5.7 g/dL
  gamma-GTP: 1.4 IU/L
